The nature of the data set: incorporation of adriamycin into MFG, by difference, spectrofluorometric determination. Particulars: 0.9 ml packed MFG with 0.1 ml adriamycin 1 mg/ml in PBS, overnight at room temperature. The format is physicochemical. Here is the method: The milk fat globules to be loaded with drug are obtained from raw bovine milk by centrifugation at 1,500 x g for 10 min at room temperature followed by removal of the underlying (sub-natant) aqueous material. The MFG is washed three times by the addition of phosphate buffered saline, pH 7.4 (PBS) to the original volume followed by centrifugation at 1500 x g for 10 min and removal of the sub-natant fluid. Adriamycin is rapidly and stably loaded into the MFG very efficiently by incubating 0.9 ml packed MFG with 0.1 ml adriamycin, dissolved in PBS to a concentration of 1 mg/ml, overnight at room temperature. The resultant MFG is then transferred to a 10 ml syringe fitted with a stopcock, brought to 10 ml with PBS and centrifuged at 1500 x g for 10 min. The sub-natant fluid is removed by opening the stopcock and the milk fat globule layer is washed three times by gentle suspension in PBS followed by centrifugation. […] The presence of adriamycin is detected in the MFG by its fluorescence emission at 590 nm using fluorescence microscopy. Alternatively, the amount of incorporated adriamycin can be calculated by difference, after determination of the amount of adriamycin remaining in the first sub-natant fraction by spectrofluorometric determination using an excitation wavelength of 470 nm and an emission wavelength of 590 nm. […]

Consider one compound from patent publication EP0306971A2, “Use of milk fat globules as carriers for drugs and as microflotation devices in immunoassays and cell/molecular fractionation” (Bankert, Richard B., priority 1987, dated 1989).

As for `COc1cccc2c1C(=O)c1c(O)c3c(c(O)c1C2=O)C[C@@](O)(C(=O)CO)C[C@@H]3O[C@H]1C[C@H](N)[C@H](O)[C@H](C)O1` [adriamycin], the “added drug incorporated into the MFG” value is listed as “up to 80%”.
